Measured values published in patent US12653821B2 (SHANGHAI BOCIMED PHARMACEUTICAL CO., LTD., priority 2020, dated 2026).
≈ marks a conversion by molar mass, not a printed value.

Columns and labels:
[1] = In vitro dissolution simulation experiment, pH 7.4 phosphate buffer; assay type: physicochemical; settings: 37° C.
Experimental: The mixtures were shaken at 37° C.

physchem = settings: 37 °C, thermodynamic from solid
Experimental: The mixtures were shaken at 37° C. for 24 h and filtered through 0.45 μm aqueous-phase filter membranes. The filtrates were collected and the solubility was determined by high performance liquid chromatography. pH3, pH4, pH5 and pH6 represent acetate buffer solutions, and pH7, pH7.4, pH8 and pH9 represent phosphate buffer solutions.

[2] = humans; cited from earlier work
[3] = Pharmacokinetic experiment in rats (plasma cariprazine, LC-MS/MS); settings: intramuscular injection at 9 mg/kg
Experimental: In the whole experiment, the animals from the intramuscular injection group were given ad libitum access to food and water, and those from the oral intragastrical group were fasted overnight before administration and given access to food 4 h after administration.
Plasma sample collection: about 150 μL of blood was collected from the jugular vein (whole blood was centrifuged within 30 min to isolate plasma) and placed in a tube containing anticoagulant EDTA-K2, and after treatment, plasma was stored in a freezer at −70° C. before use.
Pretreatment of plasma sample: to 30 μL of plasma sample was added 200 μL of internal standard solution (40 ng/mL Glipizide acetonitrile solution); the mixture was vortexed for 1 min and centrifuged at 5800 rpm at 4° C. for 10 min; 100 μL of supernatant was transferred to a new plate and 1 μL of solution was taken for LC-MS/MS analysis.
Secondary mass spectrometry analysis was performed using an electrospray ion source (Turbo spray) in the multiple reaction monitoring (MRM) mode under the positive ion detection mode.

solubility at 24 h (physchem; pH 5, aqueous buffer) [µg/mL] | solubility at 24 h (physchem; pH 3, aqueous buffer) [µg/mL] | solubility at 24 h (physchem; pH 7, aqueous buffer) [µg/mL] | solubility at 24 h (physchem; pH 9, aqueous buffer) [µg/mL] | SMILES | Concentration, 1 (h) [1] [ng/mL] | Concentration, 5 (h) [1] [ng/mL] | Concentration, 7 (h) [1] [ng/mL] | Concentration, 24 (h) [1] [ng/mL] | cariprazine clearance [2] [days] | length of release among the crystalline forms [3]
 |  |  |  | CN(C)C(=O)NC1CCC(CCN2CCN(c3cccc(Cl)c3Cl)CC2)CC1 (centres unmarked) [Amorphous cariprazine embonate, cariprazine embonate] | 11940 | 9580 | 7080 | 9900 |  | 
10800 |  |  |  | CN(C)C(=O)N[C@H]1CC[C@H](CCN2CCN(c3cccc(Cl)c3Cl)CC2)CC1.Cl [Cariprazine hydrochloride] |  |  |  |  |  | 
243 (≈ 568 µM) | 1360 (≈ 3190 µM) | 3.2 (≈ 7.49 µM) | 1.4 (≈ 3.28 µM) | CN(C)C(=O)N[C@H]1CC[C@H](CCN2CCN(c3cccc(Cl)c3Cl)CC2)CC1 [Cariprazine, cariprazine] |  |  |  |  | 3 to 9 | 
 |  |  |  | CN(C)C(=O)NC1CCC(CCN2CCN(c3cccc(Cl)c3Cl)CC2)CC1 (centres unmarked) [Crystalline form A of cariprazine embonate] | 1000 | 4100 | 3900 | 2500 |  | best length of release
 |  |  |  | CN(C)C(=O)NC1CCC(CCN2CCN(c3cccc(Cl)c3Cl)CC2)CC1 (centres unmarked) [Crystalline form B of cariprazine embonate] | 5300 | 5200 | 2200 | 1700 |  | 
 |  |  |  | CN(C)C(=O)NC1CCC(CCN2CCN(c3cccc(Cl)c3Cl)CC2)CC1 (centres unmarked) [Crystalline form G of cariprazine embonate] | 1300 | 2280 | 1840 | 8050 |  | 
